These results are taken from patent publication US20250327028A1, “ENGINEERED PLATELETS AS TARGETED PROTEIN DEGRADERS” (Wisconsin Alumni Research Foundation, priority 2024, published 2025).

One assay relates to 4T1 cells. Kind of assay: HAC-B-mediated internalization of streptavidin in 4T1 cells. The assay is classed as cell-based, murine. Conditions: 4T1 cells pretreated 5 μM 2 h, vs cells without pretreatment. Here is the method: HAC-B-mediated internalization of streptavidin in 4T1 cells: 5×10^4 4T1 cells were seeded in a confocal dish and cultured for 24 h at 37° C. Then, the cells were treated with free HAC-B at 5 μM for 2 h. Next, the drug-containing medium was removed, and PBS was used to wash the cells twice, followed by incubating the cells in the blank medium containing streptavidin-FITC at 0.5 μM for 1 h. For cotreatment, 4T1 cells were cotreated with 5 μM HAC-B and 0.5 μM FITC-SA for 1 h. Before staining with Hoechst 33342, the cells were washed with PBS twice and fixed with 4% PFA at room temperature for 20 min. Finally, the cells were subjected to Leica SP8 Confocal WLL STED microscopy for observation.

The next assay has as its target T1, BRD4 (Homo sapiens, UniProt O60885).
T1 construct: endogenous in cells; host or cells: WT MDA-MB-231 (ATCC)
The assay is described as follows: Immunoblot analysis of BRD4 degradation in HSP90α-KO MDA-MB-231 cells. In kind it is cell-based. Particulars: 24 h. From the text: Immunoblot analysis: Immunoblot analysis was used to evaluate the expression of BRD4, HSP90, HSP90a, and PD-L1 in 4T1, WT MDA-MB-231, HSP90α-KO MDA-MB-231 or PEA-10 cells after various treatments and also served as the detection method for IP or co-IP experiments. The procedures for preparing IP or co-IP samples were indicated in the relevant experimental parts.
Sample preparation for various cancer cells after free HAC treatment: Various cells, including 4T1, WT MDA-MB-231, HSP90α-KO MDA-MB-231, or PEA-10 cells, were seeded in 6-well culture plates with a density of 5×10^4 cells in each well and cultured for 24 h. Then, if HAI pretreatment was performed, the cells were incubated in the HAI-containing blank medium at different concentrations for 2 h and washed with PBS twice before the following treatments. […]
General procedures for immunoblot analysis: After a 30-min lysis, the lysates were centrifuged at 10,000 g for 10 minutes at 4° C., and the corresponding supernatants were collected, followed by quantification of the total proteins in the supernatant through the BCA assay. […] Finally, the bands were treated with electrochemiluminescence (ECL) western blot substrate, detected by the iBright™ imaging system and quantified with ImageJ software. […]
On the technique in general: A western blot detects proteins with antibodies after separation by electrophoresis.

As for `N#CCN(C(=O)CCCC[C@@H]1SC[C@@H]2NC(=O)N[C@@H]21)S(=O)(=O)c1ccc(C(=O)NCCCn2c(Sc3cc4c(cc3I)OCO4)nc3c(N)ncnc32)cc1` [HAC-B, N-(3-(6-amino-8-((6-iodobenzo[d][1,3]dioxol-5-yl)thio)-9H-purin-9-yl)propyl)-4-(N-(cyanomethyl)-N-(5-((3aS,4S,6aR)-2-oxohexahydro-1H-thieno[3,4-d]imidazol-4-yl)pentanoyl)sulfamoyl)benzamide], the “internalization of streptavidin-FITC” value in the assay with 4T1 cells is “much stronger green fluorescence signals”.
`Cc1sc2c(c1C)C(c1ccc(Cl)cc1)=N[C@@H](CC(=O)NCc1cn(CCCC(=O)N(CC#N)S(=O)(=O)c3ccc(C(=O)NCCCn4c(Sc5cc6c(cc5I)OCO6)nc5c(N)ncnc54)cc3)nn1)c1nnc(C)n1-2` [iHAC, (S)—N-(3-(6-amino-8-((6-iodobenzo[d][1,3]dioxol-5-yl)thio)-9H-purin-9-yl)propyl)-4-(N-(4-(4-((2-(4-(4-chlorophenyl)-2,3,9-trimethyl-6H-thieno[3,2-f][1,2,4]triazolo[4,3-a][1,4]diazepin-6-yl)acetamido)methyl)-1H-1,2,3-triazol-1-yl)butanoyl)-N-(cyanomethyl)sulfamoyl)benzamide]: at BRD4, the “remaining BRD4 degradation potency” value is on record as “partially maintains the degradation potency”. Further, on BRD4 (lower and higher concentration ranges), the “effect of HSP90α deficiency on BRD4 degradation efficacy” value is reported as “substantially compromised the BRD4 degradation efficacy”.
